In US20090239887A1, “Method of resolution and antiviral activity of 1,3-oxathiolane nucleoside enantiomers” (Emory University, priority 1990, published 2009):
Where two headings read alike, the source gives them in different places.

Test system: HIV-1 (strain LAV)
Test: microbe, parasite or virus in culture
Format: cell-based
Details: for EC50: read-out: EC50
Description: It is often desirable to screen a number of racemic mixtures of nucleosides as a preliminary step to determine which warrant further resolution into enantiomerically enriched components and evaluation of antiviral activity. The ability of nucleosides to inhibit HIV can be measured by various experimental techniques. The technique used herein, and described in detail below, measures the inhibition of viral replication in phytohemagglutinin (PHA) stimulated human peripheral blood mononuclear (PBM) cells infected with HIV-1 (strain LAV). The amount of virus produced is determined by measuring the virus-coded reverse transcriptase enzyme. The amount of enzyme produced is proportional to the amount of virus produced.
A. Three-day-old phytohemagglutinin-stimulated PBM cells (10^6 cells/ml) from hepatitis B and HIV-1 seronegative healthy donors were infected with HIV-1 (strain LAV) at a concentration of about 100 times the 50% tissue culture infectious dose (TICD 50) per ml and cultured in the presence and absence of various concentrations of antiviral compounds.
B. Approximately one hour after infection, the medium, with the compound to be tested (2 times the final concentration in medium) or without compound, was added to the flasks (5 ml; final volume 10 ml). AZT was used as a positive control.
C. The cells were exposed to the virus (about 2×10^5 dpm/ml, as determined by reverse transcriptase assay) and then placed in a CO2 incubator. HIV-1 (strain LAV) was obtained from the Center for Disease Control, Atlanta, Ga. The methods used for culturing the PBM cells, harvesting the virus and determining the reverse transcriptase activity were those described by McDougal et al. (J. Immun. Meth. 76, 171-183, 1985) and Spira et al. (J. Clin. Meth. 25, 97-99, 1987), except that fungizone was not included in the medium (see Schinazi, et al., Antimicrob. Agents Chemother. 32, 1784-1787 (1988); Id., 34:1061-1067 (1990)).
D. On day 6, the cells and supernatant were transferred to a 15 ml tube and centrifuged at about 900 g for 10 minutes. Five ml of supernatant were removed and the virus was concentrated by centrifugation at 40,000 rpm for 30 minutes (Beckman 70.1 Ti rotor). The solubilized virus pellet was processed for determination of the levels of reverse transcriptase. Results are expressed in dpm/ml of sampled supernatant. Virus from smaller volumes of supernatant (1 ml) can also be concentrated by centrifugation prior to solubilization and determination of reverse transcriptase levels.

[1] = Human immunodeficiency virus 1, PBMC, comparison nucleosides, source not stated
[2] = human PBM cells infected with HIV-1, enantiomers isolated by chiral HPLC (Example 3)

Q: For [N-]=[N+]=N[C@H]1C[C@H](n2ccc(=O)[nH]c2=O)O[C@@H]1CO [AZDU, 3′-azido-2′,3′-dideoxyuridine, reference compound], which EC50 [1] is on record?
A: 180 to 460 nM

Q: For Nc1ccn(C2CSC(CO)O2)c(=O)n1 (stereo not drawn) [BCH-189 (+), 2-hydroxymethyl-5-(cytosin-1-yl)-1,3-oxathiolane], which DPM/ml (0.00085 μM) is on record?
A: 71,795 DPM/ml

Q: What about the DPM/ml (0.00425 μM) of the same compound?
A: 99,710 DPM/ml

Q: And the DPM/ml (0.0085 μM)?
A: 68,355 DPM/ml

Q: And the DPM/ml (0.0415 μM)?
A: 82,845 DPM/ml

Q: What about the DPM/ml (0.0825 μM) of the same compound?
A: 65,100 DPM/ml

Q: And the DPM/ml (0.412 μM)?
A: 43,260 DPM/ml

Q: And the inhibition at 0.00085 µM (Human immunodeficiency virus 1, PBMC, 0.00085 μM, read-out: % Inhibition (Corrected))?
A: 28.7%

Q: What about the inhibition at 0.00425 µM (Human immunodeficiency virus 1, PBMC, 0.00425 μM, read-out: % Inhibition (Corrected)) of the same compound?
A: -2.1%

Q: What about the inhibition at 0.0085 µM (Human immunodeficiency virus 1, PBMC, 0.0085 μM, read-out: % Inhibition (Corrected)) of the same compound?
A: 32.5%

Q: And the inhibition at 0.0415 µM (Human immunodeficiency virus 1, PBMC, 0.0415 μM, read-out: % Inhibition (Corrected))?
A: 16.5%

Q: And the inhibition at 0.0825 µM (Human immunodeficiency virus 1, PBMC, 0.0825 μM, read-out: % Inhibition (Corrected))?
A: 36.1%

Q: What about the inhibition at 0.412 µM (Human immunodeficiency virus 1, PBMC, 0.412 μM, read-out: % Inhibition (Corrected)) of the same compound?
A: 60.3%

Q: What about the EC50 [2] of the same compound?
A: 230 nM

Q: What does the source list for Nc1ccn(C2CSC(CO)O2)c(=O)n1 (stereo not drawn) [BCH-189 (−), 2-hydroxymethyl-5-(cytosin-1-yl)-1,3-oxathiolane]?
A: DPM/ml (0.001 μM): 76,400 DPM/ml; DPM/ml (0.005 μM): 66,875 DPM/ml; DPM/ml (0.01 μM): 54,170 DPM/ml; DPM/ml (0.05 μM): 57,615 DPM/ml; DPM/ml (0.1 μM): 34,705 DPM/ml; DPM/ml (0.5 μM): 15,250 DPM/ml; inhibition at 0.001 µM (Human immunodeficiency virus 1, PBMC, 0.001 μM, read-out: % Inhibition (Corrected)): 23.6%; inhibition at 0.005 µM (Human immunodeficiency virus 1, PBMC, 0.005 μM, read-out: % Inhibition (Corrected)): 34.2%; inhibition at 0.01 µM (Human immunodeficiency virus 1, PBMC, 0.01 μM, read-out: % Inhibition (Corrected)): 48.2%; inhibition at 0.05 µM (Human immunodeficiency virus 1, PBMC, 0.05 μM, read-out: % Inhibition (Corrected)): 44.4%; inhibition at 0.1 µM (Human immunodeficiency virus 1, PBMC, 0.1 μM, read-out: % Inhibition (Corrected)): 69.7%; inhibition at 0.5 µM (Human immunodeficiency virus 1, PBMC, 0.5 μM, read-out: % Inhibition (Corrected)): 91.2%; EC50 [2]: 16 nM

Q: Nc1ncnc2c1ncn2[C@H]1CC[C@@H](CO)O1 [DDA, 2′,3′-dideoxyadenosine, reference compound] was tested. Which EC50 [1] did it give?
A: 910 nM

Q: With Nc1ccn([C@H]2CC[C@@H](CO)O2)c(=O)n1 [DDC, dideoxycytidine, reference compound] as the compound, how does the EC50 [1] read?
A: 11 nM

Q: With Cc1cn([C@H]2CC[C@@H](CO)O2)c(=O)[nH]c1=O [DDT, 3′-dideoxythymidine, reference compound] as the compound, how does the EC50 (comparison nucleosides, source not stated) read?
A: 170 nM
